Key:
[1] = test system: white rabbits of the New Zealand breed; assay: Ocular irritation test; type: in vivo
Description: (§1) This study was carried out on white rabbits of the New Zealand breed and on rats of the Sprague Dawley breed.
(§2) The white rabbits were subjected on the one hand to the ocular irritation test and on the other hand to the primary skin irritation test.
(§3) observing the OECD Guidelines no. 404 and 405 of 24 Feb. 1987 to the extent that they are studies carried out on white rabbits, and OECD Guidelines no. 401 and 402 (1987) as well as EEC Directive B-I 92/69 (1992) to the extent that they are studies carried out on Sprague Dawley rats.

[2] = test system: rats of the Sprague Dawley breed; assay: Acute dermal toxicity; type: in vivo
Description: as §1
(§4) The rats were subjected on the one hand to a study for determination of the acute dermal toxicity and on the other hand to a study for determination of the acute oral toxicity.
as §3

[3] = test system: extrinsic coagulation; assay: Prothrombin time test; type: biochemical
Description: (§5) For this, the anticoagulant activity of the laminarin sulphate PS3 obtained in Example 1 was determined as a function of its concentration in comparison with that of heparin in the conventional coagulation, APTT or “activated partial thromboplastin time” tests, the prothombin time test, the so-called “HEPTEST” test and the thrombin time test. The APTT reflects an interaction with the intrinsic coagulation system, while the prothrombin time reflects an interaction with the extrinsic coagulation; the so-called “HEPTEST” test is the conventional test for measurement of the inhibitory activity of heparin with respect to factor Xa, and the thrombin time corresponds to the last stage of coagulation, that is to say the formation of fibrins induced by thrombin.

[4] = test system: factor Xa; assay: Specific anti-factor Xa test using chromogenic substrates; type: biochemical
From the text: The effect in the case of the thrombin time can be considered as being due to an inhibition of thrombin dependent on heparin cofactor II. On the basis of on the one hand the lower specific activity and on the other hand the profile dependent on the concentration and also on the other hand other investigations relating to the action mechanism, it is possible to consider that in the case of the laminarin sulphate PS3, the risk of bleeding is considerably lower than in the case of heparin.

[5] = test system: HSV-1; assay: Action on the viral adsorption (treatments A, B, C); type: cell-based, herpes simplex virus 1; details: treatment C (present during and after infection), 72 hours
Description: (§6) To determine whether PS3 has an effect on the viral adsorption, the procedure was as follows.
(§7) Vero cells were seeded at a cell density of 3.5·10^4 cells/well of a 96-well microtitre plate in 100 μl of MEM medium containing 8% FCS 24 hours before the test. The viral suspensions of HSV-1, HSV-1R, HSV-2 and HSV-2R, defined by an MOI of 0.01 ID50/cell for a cell concentration of 350,000 cells/ml, were tested.
(§8) On the day of the test, the cells were subjected to three different treatments designated A, B and C.
(§9) According to treatment A, cells treated with 50 μl of PS3 or comparison product (acyclovir) of a given concentration were infected with 50 μl of one of the viral suspensions identified above for one hour at 4° C.
(§10) The infected cells were then washed with 100 μl of saline buffer in order to remove the PS3 or the reference product as well as the viral particles which had not been adsorbed by the cells.
(§11) After having filled each well with sufficient MEM medium containing 8% FCS to arrive at a volume of 200 μl, the cells were then placed in an oven at 37° C. for 72 hours. […]
(§12) For these 3 treatments, the inhibitory effect of PS3 and of the reference product (expressed in EC50) on the adsorption of the four abovementioned viral strains after 72 hours was evaluated by measurement of the EC50 values in accordance with the method described in Example 3.

[6] = test system: HSV-1R; assay: as above; type: cell-based, herpes simplex virus 1; details: treatment C (present during and after infection), 72 hours
Description: as §6, §7, §8, §9, §10, §11, §12

[7] = test system: HSV-2; assay: as above; type: cell-based, herpes simplex virus 2; details: treatment C (present during and after infection), 72 hours
Description: as §6, §7, §8, §9, §10, §11, §12

[8] = test system: HSV-2R; assay: as above; type: cell-based, herpes simplex virus 2; details: treatment C (present during and after infection), 72 hours
Description: as §6, §7, §8, §9, §10, §11, §12

[9] = test system: factor Xa; assay: HEPTEST coagulation test; type: biochemical; details: in contrast to heparin
Description: For this, the anticoagulant activity of the laminarin sulphate PS3 obtained in Example 1 was determined as a function of its concentration in comparison with that of heparin in the conventional coagulation, APTT or “activated partial thromboplastin time” tests, the prothombin time test, the so-called “HEPTEST” test and the thrombin time test. The APTT reflects an interaction with the intrinsic coagulation system, while the prothrombin time reflects an interaction with the extrinsic coagulation; the so-called “HEPTEST” test is the conventional test for measurement of the inhibitory activity of heparin with respect to factor Xa, and the thrombin time corresponds to the last stage of coagulation, that is to say the formation of fibrins induced by thrombin. […] The specific activity (IU/mg) in the APTT represents 30% of the heparin activity, and in the case of the thrombin time 60%. To prevent coagulation totally, it was necessary to apply a concentration 4 times higher in the case of the APTT and a concentration 20 times higher in the case of the thrombin time.

[10] = test system: formation of fibrins induced by thrombin; assay: Thrombin time test; type: biochemical; details: relative to heparin
Description: as §5

[11] = test system: rats of the Sprague Dawley breed; assay: Acute oral toxicity; type: in vivo
Description: as §1, §4, §3

[12] = test system: intrinsic coagulation system; assay: APTT (activated partial thromboplastin time) test; type: biochemical; details: relative to heparin
Description: as §5

[13] = test system: white rabbits of the New Zealand breed; assay: Primary skin irritation test; type: in vivo
Description: as §1, §2, §3

## sulphated laminarin [PS3]
[1]
  Ocular irritation: slightly irritating action
[2]
  dermal 50% lethal dose: greater than 2 g/kg of body weight
[3]
  Anticoagulant effect on the prothrombin time: no pronounced anticoagulant effect
[4]
  anti-factor Xa activity dependent on the antithrombin: neither a significant anti-factor Xa activity dependent on the antithrombin
[5]
  EC50: 3.84 µg/mL
[6]
  EC50: 5.54 µg/mL
[7]
  EC50: 0.24 µg/mL
[8]
  EC50: 0.30 µg/mL
[9]
  Activity in the HEPTEST test compared with heparin: more than 20 times weaker
[10]
  Concentration needed to prevent coagulation totally, thrombin time: 20 times higher
  Specific activity (IU/mg) in the thrombin time as share of the heparin activity: 60%
[11]
  acute toxicity by the oral route: greater than 2 g/kg of body weight
[12]
  Concentration needed to prevent coagulation totally, APTT: 4 times higher
  Specific activity (IU/mg) in the APTT as share of the heparin activity: 30%
[13]
  Primary skin irritation: non-irritating action

Source: patent US8288363B2, “Medicaments for anti-herpes virus treatments” (ASE & BIO, priority 2006, dated 2012)
